In patent publication US10731134B2, “Production method for artificial cancer stem cell and induced differentiation method therefor” (Public University Corporation Yokohama City University, priority 2011, dated 2020):
Entries after “also recorded” stand apart in the source; their conditions may differ.

Key:
[1] = test system: (CD44high/CD24low) cancer stem cells; details: mixed population of cancer stem cells and cancer cells; Gupta et al. 2009; cited from earlier work
[2] = test system: (CD44low/CD24high) cancer cells; details: mixed population of cancer stem cells and cancer cells; Gupta et al. 2009; cited from earlier work
[3] = test system: CSC-10A-D9 induced by differentiation from CSC-10A (induced cancer stem cells); test: Induced differentiation of CSC-10A by addition of salinomycin (phase-contrast morphology, alkaline phosphatase staining, Western blot); assay type: cell-based, human
Protocol: Also, these cells were stained with an undifferentiation marker alkaline phosphatase (ALP). […] Next, these cells were lysed and subjected to Western blot.
Induced Differentiation Method for CSC-10A (Addition of Salinomycin)
CSC-10A was seeded over 10-cm dishes. After 24 hours, salinomycin was added to give a final concentration of […] and the culture was continued at 37° C. Four days after the addition of salinomycin, the cells were stained with alkaline phosphatase. The cells were recovered four days after the addition of salinomycin and subjected to Western blot which confirmed the expression of vimentin, β-catenin, and tubulin (control).

[4] = Western blot, 10 μM salinomycin, 4 days after addition

SMILES | Effect on (CD44high/CD24low) cancer stem cells [1] | Effect on (CD44low/CD24high) cancer cells [2] | Staining with undifferentiation marker alkaline phosphatase (ALP-positive cells) ([3]; 10 μM salinomycin vs DMSO, 4 days after addition) | Size of each individual cell ([3]; 10 μM salinomycin vs DMSO, 4 days later) | Cell differentiation / morphology under a phase-contrast microscope ([3]; 10 μM salinomycin vs DMSO, observed 4 days later) | Expression of differentiation (epithelial) marker beta-catenin [3, 4] | Expression of stem cell (mesenchymal) marker vimentin [3, 4]
CC(=O)O[C@H]1C(=O)[C@@]2(C)[C@H]([C@H](OC(=O)c3ccccc3)[C@]3(O)C[C@H](OC(=O)[C@H](O)[C@@H](NC(=O)c4ccccc4)c4ccccc4)C(C)=C1C3(C)C)[C@]1(OC(C)=O)CO[C@@H]1C[C@@H]2O [Taxol] | left intact | only inhibits the growth of cancer cells |  |  |  |  | 
CC[C@@H](C(=O)[C@@H](C)[C@@H](O)[C@H](C)[C@@H]1O[C@@H]([C@@H](CC)C(=O)O)CC[C@@H]1C)[C@H]1O[C@]2(C=C[C@@H](O)[C@]3(CC[C@@](C)([C@H]4CC[C@](O)(CC)[C@H](C)O4)O3)O2)[C@H](C)C[C@@H]1C [salinomycin] | kills only cancer stem cells | leaving cancer cells intact | significant decrease in ALP-positive cells; also recorded: decreased | increased | differentiated into epithelial-like cells | increase | decrease
